In patent publication US10688119B2, “Inhibitors of PCSK9 for treatment of lipoprotein metabolism disorders” (Aarhus Universitet, priority 2015, dated 2020):
“Also recorded” adds a separate entry of the source. Read-outs that look alike come from different tables or passages of the source.

What was measured:
[1] = system: LDLR in HepG2 cells; experiment: LDLR levels in HepG2 cells by Western blot/densitometry (PCSK9 induced LDLR degradation)
Description: (§1) Purified PCSK9 variants were tested in a cell assay to test their ability to induce degradation of LDLR compared to wild-type PCSK9. Induction of LDLR degradation was analyzed by incubation of HepG2 cells with wild type PCSK9 (WT) or the above PCSK9 mutants and LDLR levels were assessed by Western blotting. HepG2 cells were seeded at a density 250.000 cells per well in 12-well plates. […] Cells were harvested and lysed following 18 hours incubation and LDLR levels were assessed by Western blotting and quantification by densitometry.
The PCSK9 inhibitory effect of overnight incubation with suramin (0-200 μg/ml) was tested in HepG2 cells (FIG. 9 A-B).

[2] = system: J774 macrophages; set-up: dose or concentration left out as unconfirmed; conditions: cited from earlier work
[3] = system: apoE−/− mice; conditions: 4-week treatment, cited from earlier work
[4] = heparin affinity chromatography of PCSK9 and variants; assay type: binding; conditions: conditioned media, Heparin Sepharose CL-6B beads
Description: Purified PCSK9 was loaded onto a 5 ml HiTrap Heparin HP column (GE Healthcare) in PBS. The column was connected to an Äkta Prime and washed with 5 column volumes of 10 mM NaH2PO4 (pH 7.4). PCSK9 was eluted using a linear gradient of 10 mM NaH2PO4 (pH 7.4) and 2 M NaCl and fractions were analyzed by SDS-PAGE. Based on the measured conductivity, the elution profile was transformed to a function of NaCl concentration using the transformation coefficient 0.065 mS/mM NaCl. PCSK9 was retained on the heparin column and eluted at a NaCl concentration of approximately 500 mM (FIG. 2E), indicating a strong and highly specific interaction with heparin.
In a different experiment, conditioned media from HepG2 cells were incubated with Heparin Sepharose CL-6B beads (GE Healthcare) in 10 mM NaH2PO4 (binding buffer). Following overnight incubation on a rotor at 4⊐ C, beads were washed in binding buffer before batch elution of heparin bound proteins in increasing concentration of NaCl. PCSK9 in input, flow through, and elution fractions were evaluated by Western blotting.
Conditioned media from CHO cells transfected with PCSK9 variants of interest were incubated with Heparin Sepharose CL-6B beads (GE Healthcare) in 10 mM NaH2PO4 (binding buffer). Following overnight incubation on a rotor at 4° C., beads were washed in binding buffer before batch elution of heparin bound proteins in increasing concentration of NaCl. PCSK9 in input, flow through, and elution fractions were evaluated by Western blotting.

[5] = system: LDLR in liver; experiment: liver LDLR levels in mice after intravenous PCSK9 (Western blot); assay type: in vivo, mice (BALB6/cJRj)
Description: To test the effect of enzymatic removal of heparan sulfate GAGs on PCSK9 activity in vivo 10-12 week-old male BALB6/cJRj mice were infused with heparinase I (30 U) administered through a tail vein catheter 5 min prior injection of PCSK9 (10 μg). In control mice the heparinase injection and/or the PCSK9 injection were replaced with an injection of 0.9% saline. During heparinase infusion, mice were lightly anaesthetized with isoflurane continuously administered through a mask.
Mice (BALB6/cJRj) were subjected to a single intravenous administration (tail vein) of 10 μg human recombinant PCSK9 alone or in combination with heparin (50 U). One hour post injection mice were sacrificed and liver tissues were collected.

[6] = system: LDLR in HepG2 cells; experiment: LDLR degradation in HepG2 cells induced by PCSK9 WT or mutant; assay type: cell-based, human; conditions: 10 nM PCSK9, 18 hours
Description: as §1

[7] = biological target: PCSK9 (Homo sapiens, UniProt Q8NBP7); experiment: Microscale Thermophoresis (MST) equilibrium binding to PCSK9; conditions: 100 nM labelled PCSK9, PBS+0.05% Tween-20
Description: PCSK9 was labeled using the MO-L003 Monolith Blue-NHS labeling kit (NanoTemper Technologies) and a labeling efficiency of 1:1 molar ratio of protein to dye was achieved. PCSK9 was applied at a final concentration of 100 nM. […] MST measurements were performed in standard-treated capillaries (NanoTemper Technologies) on a Monolith NT.115 instrument (NanoTemper Technologies) using 20% LED and 80% MST power. Laser on and off times were 5 s and 35 s, respectively. Negative controls were performed using 100 nM of labelled PCSK9 in MST buffer in all 16 capillaries under the same conditions as mentioned above. […] For each binding partner, the sigmoidal dose-response curves were fitted with GraphPad Prism 6 to yield an average KD value.

[8] = system: cell surface PCSK9 on HepG2 cells; experiment: surface PCSK9 immunostaining of non-permeabilized HepG2 cells stably expressing PCSK9; assay type: cell-based, human; conditions: heparinase I 0.0002 UN/ml, 1 h
Description: We speculated that HSPG might be involved in the capture of PCSK9. Thus, we treated human hepatocyte-derived HepG2 cells stably expressing PCSK9 with heparinase I. The enzyme heparinase I cleaves heparan sulfate GAG chains at the 1,4 O-linkage between uronic acid and D-glucosamine, thereby removing cell surface heparan sulfate chains.
HepG2 cells stably transfected with PCSK9 were seeded at 50.000 cells per coverslip and incubated overnight before addition of heparinase I (Sigma Aldrich/H2519) in PBS (0.0002 UN/ml) or PBS alone. Cells were incubated for 1 h. at 37⊐ C, before fixation in 4% paraformaldehyd and immunostaining of non-permeabilized cells with primary and secondary antibodies. Nuclei were visualized with Hoechst dye (Sigma Aldrich). Images were acquired on a Zeiss LSM780.

[9] = biological target: T1, R93R96R97R104R105H139 PCSK9 mutant and variants (Homo sapiens, UniProt Q8NBP7, H139A/R104A/R105A/R93A/R96A/R97A); experiment: immunoprecipitation of 35S-mutant PCSK9 and PCSK9 variants; assay type: binding; conditions: 500 μl conditioned hybridoma media
T1 construct: expressed in transfected cells
Description: Western blot of GAPDH is shown as loading control. (B) Western Blot showing LDLR levels in liver of mice 1 hour afterintravenous administration of 10 μg PCSK9 alone or in combination with 50 U Heparin. 50 μg membrane preparations were loaded. As control is shown Western Blot for sortilin, a PCSK9 receptor previously shown not to be target of PCSK9 induced degradation. (C) Quantification of B) Bands were quantified by densitometry and dot plot show the individual level of each sample in percent of vehicle (0.9% NaCl) injected controls with mean values and SEM. […] (D) Autoradiography (16 h exposure) showing immunoprecipitation of native human ^35S labeled PCSK9 by serum (1 μl) from three rats immunized with DNA encoding rat PCSK9 with human HSPG binding domain. As negative controls were used preimmune serum from the animals. (E) Western Blot showing LDLR in HepG2 cells after overnight incubation with preimmune or immune IgG (1 μg/ml). […] (F) Autoradiography (16 h exposure) showing immunoprecipitation of human ^35S-PCSK9 by 24 individual mAbs (500 μl conditioned hybridoma media) selected in ELISA screening performed by Aldevron. […] (G) Bar graphs showing LDLR levels (average of 2-4 experiments with SEM) in HepG2 cells incubated with mAbs (1:10 dilution of conditioned hybridoma media) as analysed by Western Blot. Twelve individual mAb clones give an approximately two-fold increase LDLR. (H) Autoradiography (16 h exposure) showing immunoprecipitation of human ^35S-mutant PCSK9 (with R93R96R97R104R105H139 mutated to alanine residues) by 12 individual mAbs (500 μl conditioned hybridoma media) all showing PCSK9 inhibitory effect. As control was used a polyclonal antibody (pAb, AF3888 from R&D systems). […] As control was used R&D Systems AF3888 (pAb).
These 12 clones were tested to see whether they can bind an R93R96R97R104R105H139 PCSK9 mutant (FIG. 8H).

Chain of PCSK9 (Q8NBP7 153-692): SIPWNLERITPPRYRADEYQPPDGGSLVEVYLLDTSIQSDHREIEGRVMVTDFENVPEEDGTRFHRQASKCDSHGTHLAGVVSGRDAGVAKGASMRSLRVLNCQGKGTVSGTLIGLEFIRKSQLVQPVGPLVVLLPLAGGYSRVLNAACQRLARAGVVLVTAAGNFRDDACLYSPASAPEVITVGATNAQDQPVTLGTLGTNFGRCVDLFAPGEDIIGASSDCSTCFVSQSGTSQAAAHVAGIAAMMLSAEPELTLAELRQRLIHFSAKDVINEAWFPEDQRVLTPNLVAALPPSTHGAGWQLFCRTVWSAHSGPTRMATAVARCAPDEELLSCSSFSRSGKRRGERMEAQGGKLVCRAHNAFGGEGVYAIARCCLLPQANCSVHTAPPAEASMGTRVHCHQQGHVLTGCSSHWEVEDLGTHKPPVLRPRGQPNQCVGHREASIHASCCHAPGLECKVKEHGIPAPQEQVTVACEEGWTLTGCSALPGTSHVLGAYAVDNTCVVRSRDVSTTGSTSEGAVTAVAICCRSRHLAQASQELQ

Question: For CO[C@H]1O[C@H](COS(=O)(=O)O)[C@@H](O[C@@H]2O[C@@H](C(=O)O)[C@@H](O[C@H]3O[C@H](COS(=O)(=O)O)[C@@H](O[C@@H]4O[C@H](C(=O)O)[C@@H](O[C@H]5O[C@H](COS(=O)(=O)O)[C@@H](O)[C@H](O)[C@H]5NS(=O)(=O)O)[C@H](O)[C@H]4O)[C@H](OS(=O)(=O)O)[C@H]3NS(=O)(=O)O)[C@H](O)[C@H]2OS(=O)(=O)O)[C@H](O)[C@H]1NS(=O)(=O)O [Arixtra, Fondaparinux], which “LDLR level in HepG2 cells” value ([1]; Arixtra 25-250 μg/ml, 24 h) is on record?
Answer: Its value is “elevated level of LDLR”.

Question: And the “LDLR level in HepG2 cells” value ([1]; Arixtra 25-250 μg/ml, 24 h, listed as Fondaparinux)?
Answer: Its value is “increased levels of LDLR”.

Question: With Cc1nc(N=Nc2ccc(S(=O)(=O)O)cc2S(=O)(=O)O)c(COP(=O)(O)O)c(C=O)c1O [PPADS, pyridoxal-phosphate-6-azophenyl-2′-4′-disulphonic acid] as the molecule, how does the “block of UDP effect on iNOS and interleukin-6” value [2] read?
Answer: Its value is “blocked”.

Question: And the plaque size ([3]; suramin 50 and PPADS 25 mg·kg-1·day-1, listed as PPDAS)?
Answer: Its plaque size is “reduce plaque size”.

Question: And the plaque size ([3]; suramin 50 and PPADS 25 mg·kg-1·day-1)?
Answer: Its plaque size is “reduces plaque size”.

Question: For “Mutant R93: PCSK9 alanine substitution variant”, which “binding to heparin (affinity chromatography)” value [4] is on record?
Answer: The value was “less affinity for heparin”.

Question: For “Mutant R93R104R105H139A: PCSK9 alanine substitution variant”, which “binding to heparin (affinity chromatography)” value [4] is on record?
Answer: The value was “do not bind heparin; also recorded: did not bind to heparin”.

Question: Which results are given for “WT PCSK9: wild type human PCSK9 (SEQ ID NO: 1)”?
Answer: LDLR level in liver in percent of vehicle injected controls ([5]; 1 hour after intravenous 10 μg PCSK9 alone or with 50 U Heparin, n=7 mice/group): 24.0±4.04%; LDLR levels in HepG2 cells incubated with PCSK9 variant [6]: significantly lower levels of LDLR; binding to heparin (affinity chromatography) [4]: bound heparin Sepharose

Question: For dextran [non-sulfated dextran], which “KD (affinity for PCSK9, MST)” value [7] is on record?
Answer: Its value is “no affinity”.

Question: Which results are given for dextran sulphate [dextran sulfate]?
Answer: LDLR level in HepG2 cells ([1]; dextran sulphate 0-200 μg/ml, 24 hour): concentration dependent increase of LDLR; LDLR level in HepG2 cells ([1]; dextran sulphate 0-200 μg/ml, 24 hour, listed as dextran sulphate): potently increase the cellular level of LDLR; plateau of cellular LDLR compared to vehicle control ([1]; dose-dependent, HepG2 cells): around 400%; Kd ([7]; read-out: KD (affinity for PCSK9, MST)): 180 µM

B1: heparinase I: enzyme that cleaves heparan sulfate GAG chains (Sigma Aldrich/H2519) (protein, UniProt Q05819 22-384, looked up)
Heparin lyase I: QQKKSGNIPYRVNVQADSAKQKAIIDNKWVAVGINKPYALQYDDKLRFNGKPSYRFELKAEDNSLEGYAAGETKGRTELSYSYATTNDFKKFPPSVYQNAQKLKTVYHYGKGICEQGSSRSYTFSVYIPSSFPDNATTIFAQWHGAPSRTLVATPEGEIKTLSIEEFLALYDRMIFKKNIAHDKVEKKDKDGKITYVAGKPNGWKVEQGGYPTLAFGFSKGYFYIKANSDRQWLTDKADRNNANPENSEVMKPYSSEYKTSTIAYKMPFAQFPKDCWITFDVAIDWTKYGKEANTILKPGKLDVMMTYTKNKKPQKAHIVNQQEILIGRNDDDGYYFKFGIYRVGNSTVPVTYNLSGYSETAR
Question: For B1, which “liver LDLR level / PCSK9 induced degradation of LDLR in vivo” value ([5]; 1 hour after PCSK9 10 μg, heparin 50 U or suramin 300 μg co-injected, heparinase I 30 U infused before) is on record?
Answer: Its value is “completely protected LDLR from PCSK9-induced degradation; also recorded: completely inhibits PCSK9 induced degradation of LDLR”.

Question: And the “intensity of surface PCSK9 staining” value [8]?
Answer: Its value is “marked decrease in the intensity of surface PCSK9 staining”.

B2: mAb 8HA: rat monoclonal antibody against the HSPG binding domain; VH SEQ ID NO: 9, VK SEQ ID NO: 3 (antibody, V domains shown)
VH: QVTLKESGPGILQPSQTLSLTCSFSGFSLSSSGICVSWIRQPSGKGLEWLATICWEDSKGYNPSLKNRLTISKDTSNNQALLRITSVDTADTAIYYCARVYYWYFDFWGPGTMVTVSS
VL: DIVMTQSPSLLSASVGDRVTLSCKGSQNINNYLAWYQQKLGEAPKLLIYNTNSLQTGIPSRFSGSGSGTDCTLTIRSLQPEDVATYFCYQYNNGNTFGGGTKLELK
Question: Which results are given for B2?
Answer: binding of R93R96R97R104R105H139 PCSK9 mutant (immunoprecipitation) [9]: not able to bind this mutant; increase of cellular LDLR ([1]; mAbs, 1:10 dilution of conditioned hybridoma media): approximately two fold
